Results from patent publication US20120121723A1, “Antimicrobial Compositions” (priority 2005, published 2012).
Read-outs that look alike come from different tables or passages of the source.

Tests used:
E. coli = assay: microbe, parasite or virus in culture; type: cell-based, Escherichia coli; conditions: for MIC: Escherichia coli
Excerpt: (§1) MIC testing and synergistic effects studies. The microorganisms were clinically obtained isolates. Staphylococcus aureus is a clinically significant member of the gram-positive group of bacterial pathogens. It gives rise to serious infections, and can produce bacteremia, endocarditis, and meningitis. Methicillin-resistant strains of Staphylococcus aureus (MRSA) were chosen for evaluation because they are a significant medical problem, particularly in view of the fact that methicillin is a drug of choice for treatment of S. aureus infection in the common penicillin-resistant strains. Escherichia coli was also chosen for evaluation. E. coli is a gram-negative pathogenic enterobacteriaceae, and is commonly used as a model organism for bacteria in general. The E. coli strain O157:H7, one of hundreds of strains of the bacterium E. coli, causes illness in humans.
(§2) All individual components are present in the combination at a starting point of 10,000 μg/mL, or 1% unless otherwise noted in the parenthesis in the attached tables. Combinations are serially diluted to obtain the MIC. […]
(§3) Abbreviations in Tables 2 and 3 are as follows. MIC is the Minimum Inhibitory Concentration. MRSA is Methicillin-resistant Staphylococcus Aureus. E. coli is Escherichia coli. […] Pluronic® F127 is Pluronic® F127 microemulsion.
(§4) The Minimum Inhibitory Concentrations (MIC) were determined using tube dilution sensitivities. […] The cultures were incubated overnight at 37° C. and MICs were recorded. The MIC was determined as the lowest concentration of a combination which prevented visible microorganism growth (e.g., turbidity). A culture growth control without compound and several culture sensitive reference agents were used as positive controls. The assays were performed in triplicate.
(§5) Dilutions of the compositions were added to bacterial growth media (tryptic soy broth) to result in a set of tubes with a concentration range of 0.001 mg/L-1000 mg/L of the combination.
(§6) QB is the ppm (MIC) of active substance B alone which produces an endpoint. QC is the ppm (MIC) of active substance C alone which produces an endpoint. Qa is the ppm (MIC) of active substance A, in the combination, which produces an endpoint. Qb is the ppm (MIC) of active substance B, in the combination, which produces an endpoint. Qc is the ppm (MIC) of active substance C, in the combination, which produces an endpoint. And so on for Qn components.
(§7) If the SI of Qa/QA+Qb/QB+Qc/QC is less than one, synergy is indicated. A value greater than one indicates antagonism. A value equal to one indicates additivity.

MRSA = assay: MIC by tube dilution and Kull synergy index against MRSA; type: cell-based, Staphylococcus aureus; conditions: for MIC: Staphylococcus aureus
Excerpt: as §1, §2, §3, §4, §5, §6, §7

resistant E. coli = assay: Additional synergy testing: combination plus 0.5X MIC of an antibiotic; type: cell-based, Escherichia coli
[1] = Table 3, MIC of Component 1 alone against E. coli, read-out: 1-MIC-
[2] = Table 3, MIC of Component 2 alone against E. coli, read-out: 2-MIC-
[3] = Table 2, MIC of Component 2 alone against MRSA, read-out: 2-MIC-
[4] = Table 2, MIC of Component 2 alone against MRSA
[5] = Table 2, MIC of Component 3 alone against MRSA
[6] = Table 2, MIC of Component 1 alone against MRSA, read-out: 1-MIC-

## O=C(O)c1ccccc1O [Salicylic acid, salicylic acid]
E. coli; Table 3, MIC of Component 3 alone against E. coli, read-out: 3-MIC-
  MIC: 1000 µg/mL
MRSA; MRSA, Table 5, Component 3 alone, read-out: 3-MIC-MRSA
  MIC: 1000 µg/mL
MRSA; Table 2, MIC of Component 3 alone against MRSA, read-out: 3-MIC-
  MIC: 1000 µg/mL

## C[C@H]1c2cccc(O)c2C(O)=C2C(=O)[C@]3(O)C(O)=C(C(N)=O)C(=O)[C@@H](N(C)C)[C@@H]3[C@@H](O)[C@@H]21 [doxy, doxycycline]
Resistant E. coli
  MIC Ab alone (B) QB: 50 µg/mL

## [O-][n+]1ccccc1S [Pyrithione, pyrithione]
E. coli; read-out: 2-MIC-
  MIC: 6.25 µg/mL
MRSA; MRSA, read-out: 2-MIC-
  MIC: 0.79 µg/mL
MRSA; MRSA, read-out: 2-MIC-MRSA
  MIC: 0.79 µg/mL

## CN(C)c1ccc2nc3ccc(=[N+](C)C)cc-3sc2c1 [Methylene blue, methylene blue]
E. coli; [1]
  MIC: 1000 µg/mL
E. coli; [2]
  MIC: 1000 µg/mL
MRSA; [3]
  MIC: 25 µg/mL

## CCCCCCCCO[C@@H]1O[C@H](CO)[C@@H](O)[C@H](O)[C@H]1O [Octyl glucoside, octyl glucoside]
MRSA; [4]
  2-MIC-: 1001 ppm

## CC(O)(P(=O)(O)O)P(=O)(O)O [HEDP, 1-hydroxyethylidene-1,1-diphosphonic acid]
E. coli; Table 3, MIC of Component 3 alone against E. coli
  3-MIC-: 1001 ppm
MRSA; [5]
  3-MIC-: 1001 ppm
MRSA; Table 5, Component 3 alone
  3-MIC-MRSA: 1001 ppm

## O=C(/C=C/C=C/c1ccc2c(c1)OCO2)N1CCCCC1 [Piperine, piperine]
E. coli; [1]
  MIC: 1000 µg/mL
E. coli; [2]
  MIC: 1000 µg/mL
MRSA; MRSA, read-out: 1-MIC-
  MIC: 1000 µg/mL
MRSA; MRSA, read-out: 2-MIC-
  MIC: 1000 µg/mL
MRSA; MRSA, read-out: 2-MIC-MRSA
  MIC: 1000 µg/mL

## CCCCCCCCCCCCN(CCCN)CCCN [N,N-bis(3-aminopropyl)-dodecylamine, N,N-bis-(3-aminopropyl)dodecylamine]
E. coli; [1]
  MIC: 25 µg/mL
E. coli; [2]
  MIC: 25 µg/mL
MRSA; [6]
  MIC: 12.5 µg/mL
MRSA; [3]
  MIC: 12.5 µg/mL

## gentamicin
Resistant E. coli
  MIC Ab alone (B) QB: 100 µg/mL

## CC(=O)c1c(O)c(C)c(O)c2c1OC1=CC(=O)C(C(C)=O)C(=O)C12C (stereo not shown) [Usnic Acid, usnic acid]
E. coli; [1]
  MIC: 1000 µg/mL
E. coli; [2]
  MIC: 1000 µg/mL
MRSA; MRSA, read-out: 1-MIC-
  MIC: 6.25 µg/mL
MRSA; MRSA, read-out: 2-MIC-
  MIC: 6.25 µg/mL
MRSA; MRSA, read-out: 2-MIC-MRSA
  MIC: 6.25 µg/mL

## C=CC(C)(O)CCC=C(C)CCC=C(C)C (stereo not shown) [Nerolidol, nerolidol]
E. coli; [1]
  MIC: 1000 µg/mL
MRSA; MRSA, Table 5, Comp. 1 alone, read-out: 1-MIC-MRSA
  MIC: 500 µg/mL
MRSA; [6]
  MIC: 500 µg/mL

## OCC1CCCO1 (stereo not shown) [THFA, tetrahydrofurfuryl alcohol]
MRSA; MRSA, read-out: Other-MIC-
  MIC: 500 µg/mL

## O=C(O)CN(CCN(CC(=O)O)CC(=O)O)CC(=O)O.[K] [Sample K2EDTA, potassium ethylenediaminetetraacetic acid]
E. coli; read-out: 3-MIC-
  MIC: 1000 µg/mL
MRSA; MRSA, read-out: 3-MIC-
  MIC: 500 µg/mL
MRSA; MRSA, read-out: 3-MIC-MRSA
  MIC: 500 µg/mL

## 2-hydroxypropyl-α-cyclodextrin
MRSA; [5]
  3-MIC-: 1001 ppm
MRSA; Table 5, Component 3 alone
  3-MIC-MRSA: 1001 ppm

## CN(C)[C@@H]1C(=O)C(C(N)=O)=C(O)[C@@]2(O)C(=O)C3=C(O)c4c(O)cccc4[C@@](C)(O)[C@H]3C[C@@H]12 [tetra, tetracycline]
Resistant E. coli
  MIC Ab alone (B) QB: 400 µg/mL

## C=C(C)[C@H]1CC=C(C)CC1 [Limonene, limonene]
E. coli; Table 3, MIC of Component 1 alone against E. coli
  1-MIC-: 1000 ppm
E. coli; Table 3, MIC of Component 2 alone against E. coli
  2-MIC-: 1001 ppm
MRSA; Table 2, MIC of Component 1 alone against MRSA
  1-MIC-: 1001 ppm
MRSA; [4]
  2-MIC-: 1001 ppm
MRSA; Table 5, Comp. 1 alone
  1-MIC-MRSA: 1001 ppm

## Oc1cccc2cccnc12 [8-hydroxyquinoline]
E. coli; read-out: 3-MIC-
  MIC: 50 µg/mL
MRSA; MRSA, read-out: 3-MIC-
  MIC: 1.56 µg/mL
MRSA; MRSA, read-out: 3-MIC-MRSA
  MIC: 1.56 µg/mL

## C=CCN=C=S [Allyl isothiocyanate, allyl isothiocyanate]
E. coli; [1]
  MIC: 1000 µg/mL
E. coli; [2]
  MIC: 1000 µg/mL
MRSA; MRSA, read-out: 1-MIC-
  MIC: 1000 µg/mL
MRSA; MRSA, read-out: 2-MIC-
  MIC: 1000 µg/mL
MRSA; MRSA, read-out: 2-MIC-MRSA
  MIC: 1000 µg/mL
